Columns and labels:
PARP2 = PARP2 (Homo sapiens, UniProt Q9UGN5); assay: PARP profiling, parsylation of immobilized histone; type: biochemical
Method: (§1) Performed by BPS Bioscience Inc., San Diego by following the BPS PARP or TNKS assay kit protocols. The enzymatic reactions were conducted in duplicate at room temperature for 1 hr in a 96 well plate coated with histone substrate. […] of reaction buffer (Tris.HCl, pH 8.0) contains NAD^+, biotinylated NAD^+, activated DNA, recombinant PARP enzyme and 10 μM of the test compound. […] After enzymatic reactions, 50 μL of Streptavidin-horseradish peroxidase was added to each well and the plate was incubated at room temperature for an additional 30 min. 100 μL of developer reagents were added to wells and luminescence was measured using a BioTek Synergy™ 2 microplate reader.

PARP12 = biological target: T1, PARP12 (Homo sapiens, UniProt Q9H0J9); assay: PARP profiling, parsylation of immobilized histone; type: biochemical
T1 sequence (Q9H0J9 1-701): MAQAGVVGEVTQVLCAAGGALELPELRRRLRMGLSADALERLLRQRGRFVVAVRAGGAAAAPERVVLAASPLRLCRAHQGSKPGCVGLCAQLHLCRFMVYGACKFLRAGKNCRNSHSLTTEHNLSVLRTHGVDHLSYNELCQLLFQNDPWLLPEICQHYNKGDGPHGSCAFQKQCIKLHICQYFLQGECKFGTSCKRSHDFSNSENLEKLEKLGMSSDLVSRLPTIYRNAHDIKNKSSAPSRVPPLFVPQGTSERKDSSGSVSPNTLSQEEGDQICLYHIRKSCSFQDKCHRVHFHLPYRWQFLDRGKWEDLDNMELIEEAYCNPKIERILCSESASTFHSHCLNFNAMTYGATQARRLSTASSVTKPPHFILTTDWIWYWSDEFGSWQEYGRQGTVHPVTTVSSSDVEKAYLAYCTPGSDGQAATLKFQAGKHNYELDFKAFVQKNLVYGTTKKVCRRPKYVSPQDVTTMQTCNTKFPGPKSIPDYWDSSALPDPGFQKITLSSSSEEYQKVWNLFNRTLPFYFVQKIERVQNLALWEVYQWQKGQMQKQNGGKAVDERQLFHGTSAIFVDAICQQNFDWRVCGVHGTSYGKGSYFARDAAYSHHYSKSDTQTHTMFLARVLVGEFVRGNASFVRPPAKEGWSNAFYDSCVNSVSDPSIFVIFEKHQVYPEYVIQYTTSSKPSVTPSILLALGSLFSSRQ
Method: as §1

PARP15 = biological target: T2, PARP15 (Homo sapiens, UniProt Q460N3); assay: PARP profiling, parsylation of immobilized histone; type: biochemical
T2 sequence (Q460N3 1-678): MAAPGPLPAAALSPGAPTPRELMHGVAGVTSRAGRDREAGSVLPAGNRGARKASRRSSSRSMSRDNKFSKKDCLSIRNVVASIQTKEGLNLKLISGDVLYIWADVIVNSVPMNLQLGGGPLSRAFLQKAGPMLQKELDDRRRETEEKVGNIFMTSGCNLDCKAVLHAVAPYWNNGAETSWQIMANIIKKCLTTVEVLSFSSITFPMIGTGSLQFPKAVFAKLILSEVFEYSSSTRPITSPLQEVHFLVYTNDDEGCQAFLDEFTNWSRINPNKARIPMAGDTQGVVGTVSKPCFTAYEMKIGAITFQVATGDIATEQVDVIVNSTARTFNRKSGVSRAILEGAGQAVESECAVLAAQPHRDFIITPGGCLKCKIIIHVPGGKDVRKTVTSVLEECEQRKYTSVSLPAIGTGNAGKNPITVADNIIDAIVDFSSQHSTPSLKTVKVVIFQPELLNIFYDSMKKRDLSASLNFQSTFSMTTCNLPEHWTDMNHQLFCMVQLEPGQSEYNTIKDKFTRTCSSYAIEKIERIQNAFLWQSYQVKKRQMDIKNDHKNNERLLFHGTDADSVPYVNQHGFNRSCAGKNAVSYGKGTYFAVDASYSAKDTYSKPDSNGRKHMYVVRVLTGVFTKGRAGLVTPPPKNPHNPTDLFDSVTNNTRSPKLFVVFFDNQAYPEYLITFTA
Method: as §1

PARP1 = PARP1 (Homo sapiens, UniProt P09874); assay: PARP profiling, parsylation of immobilized histone; type: biochemical; details: IWR compounds 10 μM
Method: as §1

PARP11 = PARP11 (Homo sapiens, UniProt Q9NR21); assay: PARP profiling, parsylation of immobilized histone; type: biochemical; details: IWR compounds 10 μM
Method: as §1

PARP7 = PARP7 (Homo sapiens, UniProt Q7Z3E1); assay: PARP profiling, parsylation of immobilized histone; type: biochemical; details: IWR compounds 10 μM
Method: as §1

HeLa cells = assay: Terminal restriction fragment (TRF) telomere length assay; type: cell-based, human; details: up to 40 population doublings, FIGS. 6A-B
Method: FIGS. 6A-6C show Tnks inhibitors but not a Porcn inhibitor induce telomeric shortening. […] HeLa cells were incubated with IWR-1, IWR-8, or IWP-6 at various concentrations for the indicated number of population doublings (PD) and telomere length measured by terminal restriction fragment (TRF) analysis. Density of radioprobe hybridization relative to the vertical distance from the largest molecular weight marker was quantified using ImageJ and the point of highest density in each lane marked by a dark line. Position of control telomere restricted fragment signal is indicated with dotted line. Lanes with insufficient strength in labeling or that were disrupted with blemishes during experimental processing were not quantified. […] The same assay described in “A” was used to test the Porcn inhibitor IWP-2. (FIG. 6C) Model of Tnks-dependent regulation of Wnt/β-catenin transcriptional and telomere length maintenance in human cells. Excessive Terf1 binding to DNA in the absence of Tnks-mediated Terf1 parsylation results in replication fork stalling in telomeres (Munoz, et al., 2009; Ohki and Ishikawa, 2004) which then presumably results in telomere shortening. […]
1×10^6 cells were collected and washed with PBS. […] Gels were exposed to a Phosphorlmager screen overnight and analyzed using a Typhoon Phosphorlmager scanner system (Molecular Dynamics). […]

PARP2, sequence (Q9UGN5 whole entry): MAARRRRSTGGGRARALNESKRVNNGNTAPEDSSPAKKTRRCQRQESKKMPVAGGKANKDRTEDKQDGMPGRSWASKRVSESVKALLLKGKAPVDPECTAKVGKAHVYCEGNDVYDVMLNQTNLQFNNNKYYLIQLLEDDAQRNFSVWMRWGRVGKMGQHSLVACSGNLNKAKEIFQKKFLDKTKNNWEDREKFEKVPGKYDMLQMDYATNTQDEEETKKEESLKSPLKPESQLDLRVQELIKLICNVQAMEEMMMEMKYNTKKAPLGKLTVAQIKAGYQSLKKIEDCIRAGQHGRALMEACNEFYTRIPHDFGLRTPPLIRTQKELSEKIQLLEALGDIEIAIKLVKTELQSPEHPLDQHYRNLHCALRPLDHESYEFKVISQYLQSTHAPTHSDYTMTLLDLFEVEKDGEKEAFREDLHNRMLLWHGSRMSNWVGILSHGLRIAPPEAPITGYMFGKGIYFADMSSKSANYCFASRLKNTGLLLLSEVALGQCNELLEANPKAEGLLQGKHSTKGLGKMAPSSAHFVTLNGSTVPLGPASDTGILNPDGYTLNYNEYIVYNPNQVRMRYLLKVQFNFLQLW
PARP11, sequence (Q9NR21 whole entry): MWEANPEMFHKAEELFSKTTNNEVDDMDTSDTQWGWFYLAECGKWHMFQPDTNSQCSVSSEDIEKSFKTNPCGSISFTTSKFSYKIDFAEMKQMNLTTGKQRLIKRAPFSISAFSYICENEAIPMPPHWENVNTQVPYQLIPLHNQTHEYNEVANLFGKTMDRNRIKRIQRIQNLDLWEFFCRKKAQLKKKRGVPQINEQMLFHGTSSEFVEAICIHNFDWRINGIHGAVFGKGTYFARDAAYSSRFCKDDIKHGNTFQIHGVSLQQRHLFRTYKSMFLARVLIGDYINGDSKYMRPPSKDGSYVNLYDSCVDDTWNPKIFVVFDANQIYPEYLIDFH
PARP1, sequence (P09874 whole entry): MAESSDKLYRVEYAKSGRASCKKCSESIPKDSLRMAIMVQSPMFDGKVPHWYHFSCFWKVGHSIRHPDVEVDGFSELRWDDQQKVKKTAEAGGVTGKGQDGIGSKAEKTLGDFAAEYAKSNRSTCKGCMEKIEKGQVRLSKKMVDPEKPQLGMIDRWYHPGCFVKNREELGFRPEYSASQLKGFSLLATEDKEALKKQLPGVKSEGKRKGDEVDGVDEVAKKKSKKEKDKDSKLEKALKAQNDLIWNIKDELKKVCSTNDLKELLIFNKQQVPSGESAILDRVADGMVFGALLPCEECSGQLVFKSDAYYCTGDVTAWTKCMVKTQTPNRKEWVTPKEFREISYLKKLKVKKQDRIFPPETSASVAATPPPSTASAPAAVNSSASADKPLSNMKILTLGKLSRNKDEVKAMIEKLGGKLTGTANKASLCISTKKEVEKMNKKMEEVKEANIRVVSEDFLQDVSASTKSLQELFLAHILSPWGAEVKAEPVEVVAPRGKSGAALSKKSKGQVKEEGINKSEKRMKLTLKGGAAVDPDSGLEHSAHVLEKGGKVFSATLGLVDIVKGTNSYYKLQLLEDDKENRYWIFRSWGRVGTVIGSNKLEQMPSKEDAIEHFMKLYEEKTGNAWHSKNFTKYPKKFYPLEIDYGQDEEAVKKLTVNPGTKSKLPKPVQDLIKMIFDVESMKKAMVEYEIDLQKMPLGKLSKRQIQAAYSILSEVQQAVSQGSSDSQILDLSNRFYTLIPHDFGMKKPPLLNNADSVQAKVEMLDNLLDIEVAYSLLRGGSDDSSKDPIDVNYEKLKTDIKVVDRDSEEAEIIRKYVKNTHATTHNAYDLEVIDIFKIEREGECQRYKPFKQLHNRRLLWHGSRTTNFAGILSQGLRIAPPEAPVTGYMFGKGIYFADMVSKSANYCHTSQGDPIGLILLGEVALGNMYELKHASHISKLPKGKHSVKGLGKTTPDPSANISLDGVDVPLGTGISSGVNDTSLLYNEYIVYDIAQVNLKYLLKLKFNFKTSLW
PARP7, sequence (Q7Z3E1 whole entry): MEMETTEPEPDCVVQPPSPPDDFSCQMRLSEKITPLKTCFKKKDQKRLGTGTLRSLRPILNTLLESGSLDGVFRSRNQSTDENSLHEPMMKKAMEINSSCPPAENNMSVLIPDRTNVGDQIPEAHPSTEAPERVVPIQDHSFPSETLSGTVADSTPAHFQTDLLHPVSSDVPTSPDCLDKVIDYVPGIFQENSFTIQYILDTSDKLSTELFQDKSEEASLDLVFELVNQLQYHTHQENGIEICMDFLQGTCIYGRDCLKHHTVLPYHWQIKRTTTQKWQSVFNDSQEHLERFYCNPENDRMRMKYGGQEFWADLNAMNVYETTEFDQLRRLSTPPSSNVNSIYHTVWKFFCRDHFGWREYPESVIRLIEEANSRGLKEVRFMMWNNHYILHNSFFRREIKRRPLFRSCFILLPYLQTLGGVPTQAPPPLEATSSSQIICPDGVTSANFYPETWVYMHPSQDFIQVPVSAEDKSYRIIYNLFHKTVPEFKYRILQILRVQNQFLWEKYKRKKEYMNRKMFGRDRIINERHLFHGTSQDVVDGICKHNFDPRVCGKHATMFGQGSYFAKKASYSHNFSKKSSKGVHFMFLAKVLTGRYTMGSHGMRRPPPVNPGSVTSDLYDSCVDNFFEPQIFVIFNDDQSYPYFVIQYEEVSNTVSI

## O=C(c1cc(Cc2n[nH]c(=O)c3ccccc23)ccc1F)N1CCN(C(=O)C2CC2)CC1 [Olaparib]
PARP2
  inhibition at 0.02 µM: 100%
PARP12
  inhibition at 0.02 µM: 84%
PARP15
  inhibition at 0.02 µM: 82%

## CCN(C(=O)C1CCN(S(=O)(=O)c2cc3c(cc2Br)CCN3C(C)=O)CC1)c1cccc(C)c1 [IWR-8]
PARP2; IWR compounds 10 μM
  inhibition at 10 µM: 3%
PARP12; IWR compounds 10 μM
  inhibition at 10 µM: 14%
PARP1
  inhibition at 10 µM: 0%
PARP11
  inhibition at 10 µM: 12%
PARP15; IWR compounds 10 μM
  inhibition at 10 µM: 0%
PARP7
  inhibition at 10 µM: 8%
HeLa cells
  telomere length: induced shortened telomere length in a dose-dependent manner

## O=C(Nc1cccc2cccnc12)c1ccc(N2C(=O)[C@@H]3[C@H](C2=O)[C@@H]2C=C[C@H]3C2)cc1 [IWR-1]
PARP2; IWR compounds 10 μM
  % inhibition: 5%
PARP12; IWR compounds 10 μM
  % inhibition: 11%
PARP1
  % inhibition: 0%
PARP11
  % inhibition: 2%
PARP15; IWR compounds 10 μM
  % inhibition: 0%
PARP7
  % inhibition: 7%
HeLa cells
  telomere length: induced shortened telomere length in a dose-dependent manner
